Laboratory results taken from ChEMBL document CHEMBL1201862, “PubChem BioAssay data set” (2004).
Active and inactive are the calls of the source.

Tests used:
[1] = target: Heat shock protein HSP 90-alpha (Homo sapiens, UniProt P07900); type: functional, organism-based
[2] = viability of HCT116 lacking mutant beta-catenin – cell-based, human colon tumor, dose response (AID 1045); type: functional;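 also: HCT116 colon tumor cells with beta catenin knocked out; cells exposed to compound for 60 hours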
[3] = viability of PTEN-deleted HCT116 cells – cell-based, HCT116 PTEN knockout, dose response (AID 1047); type: functional;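 also: HCT116 colon tumor cells with PTEN knocked out; cells exposed to compound for 60 hours before readout; potency for loss of cell viability measured by luminescence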
Fatty acid synthase [4] = target: T1, Fatty acid synthase (Homo sapiens, UniProt P49327); assay: inhibition of human FAS-TE enzyme activity – biochemical, kinetic fluorescence intensity, dose response (AID 624326); type: functional;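 also: rate of fluorescence rise from hydrolysis of a fluorogenic O-methyl fluorescein ester substrate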
Fatty acid synthase [5] = target: T1, Fatty acid synthase; assay: inhibition of human FAS-TE enzyme activity – biochemical, endpoint fluorescence intensity, uHTS hits, dose response (AID 624327); type: functional;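 also: fluorescence from hydrolysis of an O-methyl fluorescein acyl ester substrate by the enzyme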
[6] = Luminescence Cell-Based Dose Confirmation HTS to Identify Inhibitors of Platelet Dense Granule Release. [Related pubchem assays: 1663 (Primary HTS), 1678 (Summary of Project)]; type: functional
[7] = target: Luciferin 4-monooxygenase (Photinus pyralis, UniProt P08659); assay: inhibition of purified Photinus pyralis luciferase – biochemical, luminescence, dose response (AID 1891)
H4 = assay: Luminescence Cell-Based Dose Response HTS to Identify Activators of 5'UTR Stem-Loop Driven Prion Protein mRNA Translation in H4 Neuroglioblastoma Cells. [Related pubchem assays: 1829 (Project Summary), 1814 (Primary HTS)]; type: functional; conditions: Homo sapiens
[8] = Luminescence Cell-Based Dose Confirmation HTS to Identify Activators of 5'UTR Stem-Loop Driven Alpha-Synuclein mRNA Translation in H4 Neuroglioblastoma Cells. [Related pubchem assays: 1829 (Project Summary), 1814 (Primary HTS)]; type: functional
[9] = Luminescence Cell-Based Dose Response HTS to Identify Activators of Luciferase Translation or Activity in H4 […] Cells. [Related pubchem assays: 1829 (Project Summary), 1814 (Primary HTS)]; type: functional
[10] = target: FAD-linked sulfhydryl oxidase ALR (Homo sapiens, UniProt P55789); assay: ALR-catalysed DTT oxidation blockers – biochemical, H2O2 detection, luminescence, cherry-pick, dose response (AID 493248)
Cytochrome P450 2C9 = Cytochrome P450 2C9 (Homo sapiens, UniProt P11712)
Cytochrome P450 3A4 = Cytochrome P450 3A4 (Homo sapiens, UniProt P08684);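 also: CYP3A4 tested as one member of a cytochrome P450 panel screen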
Cytochrome P450 1A2 = target: T2, Cytochrome P450 1A2 (Homo sapiens, UniProt P05177);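 also: PubChem cytochrome P450 panel assay, CYP1A2 panel member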
T2 sequence (P05177 whole entry): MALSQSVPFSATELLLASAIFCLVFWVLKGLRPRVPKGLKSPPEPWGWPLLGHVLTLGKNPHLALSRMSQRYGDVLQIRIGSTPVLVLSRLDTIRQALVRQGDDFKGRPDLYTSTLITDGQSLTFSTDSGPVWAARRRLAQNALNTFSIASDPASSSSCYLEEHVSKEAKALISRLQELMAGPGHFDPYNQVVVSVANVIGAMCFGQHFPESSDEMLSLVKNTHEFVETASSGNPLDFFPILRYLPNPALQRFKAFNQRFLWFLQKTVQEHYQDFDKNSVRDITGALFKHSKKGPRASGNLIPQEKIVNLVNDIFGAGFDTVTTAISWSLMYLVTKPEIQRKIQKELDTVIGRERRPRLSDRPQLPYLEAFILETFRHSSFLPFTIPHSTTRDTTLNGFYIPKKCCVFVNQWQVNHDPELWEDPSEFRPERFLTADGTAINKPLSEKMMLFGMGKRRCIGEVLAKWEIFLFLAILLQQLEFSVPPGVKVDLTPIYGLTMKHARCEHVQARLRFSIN

Cytochrome P450 2C19 = Cytochrome P450 2C19 (Homo sapiens, UniProt P33261); assay: Cytochrome panel assay with activity outcomes. Panel member name: p450-cyp2c19 Compounds with AC50 equal or less than 10 uM are considered active; type: functional; conditions: read-out: AC50
BJ [11] = assay: BJ-TERT-LT-ST fibroblast viability loss – cell-based, RAS-independent, luminescence, dose response (AID 1935); type: functional; conditions: Homo sapiens;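 also: BJ fibroblasts immortalized with TERT plus LT and ST oncogenes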
[12] = NIH-3T3 fibroblast cytotoxicity, dose response, cytotoxicity control, cell-based, fluorescence, Alamar Blue, secondary assay (AID 2327); type: functional;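 also: NIH-3T3 mouse fibroblasts cultured with fluconazole at 8 µg/mL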
[13] = DRD fibroblast viability loss – cell-based, non-viral oncogenic, luminescence, dose response (AID 1934); type: functional; conditions: Homo sapiens
BJ [14] = assay: cells; type: functional, cell-based; conditions: Homo sapiens
BJ [15] = assay: BJ-TERT fibroblast viability loss – cell-based, RAS-independent, luminescence, dose response (AID 1933); type: functional; conditions: Homo sapiens
[16] = Trypanosoma cruzi growth suppression in host cells – NIH3T3 host cells, beta-gal luminescence, confirmation (AID 2044); type: functional, cell-based;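 also: intracellular parasites grown in NIH/3T3 mouse fibroblasts as host cells; luminescent beta-galactosidase reporter signal from transgenic T. cruzi replicating inside host cells; inhibitors lower the luminescence signal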
[17] = NIH3T3 cell viability loss – ATP luminescence, mouse fibroblasts, counter-screen, dose response (AID 2010); type: functional, cell-based;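 also: cells exposed to compound for about 90 hours before reading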

Sequence of FAD-linked sulfhydryl oxidase ALR (P55789 whole entry): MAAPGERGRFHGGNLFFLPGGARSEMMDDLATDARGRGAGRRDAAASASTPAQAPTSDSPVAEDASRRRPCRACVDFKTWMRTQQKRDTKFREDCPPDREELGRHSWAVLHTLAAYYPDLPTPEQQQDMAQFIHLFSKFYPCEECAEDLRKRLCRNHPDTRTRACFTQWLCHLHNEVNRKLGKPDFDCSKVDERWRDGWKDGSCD
Sequence of Luciferin 4-monooxygenase (P08659 whole entry): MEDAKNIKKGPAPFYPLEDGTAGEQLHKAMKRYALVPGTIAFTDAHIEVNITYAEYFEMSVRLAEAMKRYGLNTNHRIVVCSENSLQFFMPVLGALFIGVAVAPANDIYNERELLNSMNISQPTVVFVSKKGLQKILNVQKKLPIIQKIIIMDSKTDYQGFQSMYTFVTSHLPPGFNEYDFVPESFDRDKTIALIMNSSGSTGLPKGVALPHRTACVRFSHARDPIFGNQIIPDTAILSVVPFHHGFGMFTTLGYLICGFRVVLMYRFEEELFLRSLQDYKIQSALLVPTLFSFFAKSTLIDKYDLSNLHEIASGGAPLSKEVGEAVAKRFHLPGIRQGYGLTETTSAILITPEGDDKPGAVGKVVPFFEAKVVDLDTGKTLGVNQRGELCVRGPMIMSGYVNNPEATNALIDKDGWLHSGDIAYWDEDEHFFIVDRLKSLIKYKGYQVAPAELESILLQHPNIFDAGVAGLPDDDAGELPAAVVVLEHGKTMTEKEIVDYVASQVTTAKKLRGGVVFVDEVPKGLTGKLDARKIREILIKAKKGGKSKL
T1 sequence (P49327 whole entry): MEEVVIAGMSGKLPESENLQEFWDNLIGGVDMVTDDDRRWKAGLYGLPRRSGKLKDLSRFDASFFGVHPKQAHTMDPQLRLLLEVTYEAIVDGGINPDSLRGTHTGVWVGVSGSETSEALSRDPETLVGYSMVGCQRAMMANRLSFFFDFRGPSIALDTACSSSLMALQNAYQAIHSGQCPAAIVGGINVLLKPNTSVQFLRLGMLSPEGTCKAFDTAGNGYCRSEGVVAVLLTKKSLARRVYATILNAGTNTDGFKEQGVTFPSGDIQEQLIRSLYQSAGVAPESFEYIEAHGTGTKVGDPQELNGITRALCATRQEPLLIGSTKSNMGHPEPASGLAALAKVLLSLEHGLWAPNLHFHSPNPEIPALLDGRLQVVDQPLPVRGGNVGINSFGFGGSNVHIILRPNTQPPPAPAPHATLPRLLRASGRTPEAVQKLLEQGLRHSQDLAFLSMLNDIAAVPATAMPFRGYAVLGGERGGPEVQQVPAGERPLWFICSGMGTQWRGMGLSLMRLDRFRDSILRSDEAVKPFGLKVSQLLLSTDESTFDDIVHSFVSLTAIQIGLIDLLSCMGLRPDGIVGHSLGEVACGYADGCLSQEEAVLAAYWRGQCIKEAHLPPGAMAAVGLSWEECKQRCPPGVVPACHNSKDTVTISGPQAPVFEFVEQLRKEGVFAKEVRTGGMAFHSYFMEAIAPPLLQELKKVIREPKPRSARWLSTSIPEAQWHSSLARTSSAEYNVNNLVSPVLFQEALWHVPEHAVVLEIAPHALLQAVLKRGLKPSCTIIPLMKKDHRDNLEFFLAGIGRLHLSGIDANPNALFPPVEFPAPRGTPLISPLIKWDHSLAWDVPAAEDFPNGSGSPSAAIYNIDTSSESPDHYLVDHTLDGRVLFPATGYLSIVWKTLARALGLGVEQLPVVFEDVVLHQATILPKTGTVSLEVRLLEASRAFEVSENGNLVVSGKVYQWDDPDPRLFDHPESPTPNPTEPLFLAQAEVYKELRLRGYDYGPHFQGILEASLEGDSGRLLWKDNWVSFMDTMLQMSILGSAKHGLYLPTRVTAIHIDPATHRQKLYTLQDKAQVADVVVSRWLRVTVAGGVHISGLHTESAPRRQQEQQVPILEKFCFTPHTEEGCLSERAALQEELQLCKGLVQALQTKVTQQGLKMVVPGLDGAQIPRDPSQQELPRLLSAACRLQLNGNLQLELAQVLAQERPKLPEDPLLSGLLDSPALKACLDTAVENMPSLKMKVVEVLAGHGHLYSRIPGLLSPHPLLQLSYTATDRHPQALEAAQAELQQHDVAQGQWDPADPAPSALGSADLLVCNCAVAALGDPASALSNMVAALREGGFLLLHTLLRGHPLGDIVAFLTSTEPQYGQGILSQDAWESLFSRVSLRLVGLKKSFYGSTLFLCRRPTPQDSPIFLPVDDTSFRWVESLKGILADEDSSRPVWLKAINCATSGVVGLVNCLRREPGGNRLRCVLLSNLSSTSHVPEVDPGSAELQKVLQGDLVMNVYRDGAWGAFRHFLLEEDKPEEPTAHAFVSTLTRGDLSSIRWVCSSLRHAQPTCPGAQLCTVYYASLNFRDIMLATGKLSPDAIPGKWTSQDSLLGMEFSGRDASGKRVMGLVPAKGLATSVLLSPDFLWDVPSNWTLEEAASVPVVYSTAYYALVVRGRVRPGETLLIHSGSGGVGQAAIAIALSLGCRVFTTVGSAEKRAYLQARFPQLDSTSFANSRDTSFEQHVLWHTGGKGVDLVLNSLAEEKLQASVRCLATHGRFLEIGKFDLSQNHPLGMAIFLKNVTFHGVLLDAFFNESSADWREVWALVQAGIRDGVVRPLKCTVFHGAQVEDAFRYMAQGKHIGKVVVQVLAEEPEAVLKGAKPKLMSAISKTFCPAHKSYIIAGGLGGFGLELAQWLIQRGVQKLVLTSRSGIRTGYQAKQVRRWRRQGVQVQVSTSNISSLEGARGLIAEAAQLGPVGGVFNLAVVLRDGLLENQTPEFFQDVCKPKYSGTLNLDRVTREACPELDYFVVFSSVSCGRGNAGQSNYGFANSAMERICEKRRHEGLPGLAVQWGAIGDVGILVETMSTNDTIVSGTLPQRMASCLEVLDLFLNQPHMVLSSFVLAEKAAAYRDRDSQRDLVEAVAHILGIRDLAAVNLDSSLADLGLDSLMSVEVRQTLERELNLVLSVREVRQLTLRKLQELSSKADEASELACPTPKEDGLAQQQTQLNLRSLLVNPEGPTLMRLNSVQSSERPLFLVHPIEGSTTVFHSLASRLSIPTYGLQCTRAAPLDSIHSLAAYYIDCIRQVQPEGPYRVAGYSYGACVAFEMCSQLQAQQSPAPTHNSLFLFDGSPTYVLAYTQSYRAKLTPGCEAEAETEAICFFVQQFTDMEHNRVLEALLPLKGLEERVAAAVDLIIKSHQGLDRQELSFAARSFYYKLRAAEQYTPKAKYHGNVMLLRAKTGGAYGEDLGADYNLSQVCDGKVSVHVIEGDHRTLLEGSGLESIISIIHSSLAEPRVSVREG
Sequence of Cytochrome P450 2C9 (P11712 whole entry): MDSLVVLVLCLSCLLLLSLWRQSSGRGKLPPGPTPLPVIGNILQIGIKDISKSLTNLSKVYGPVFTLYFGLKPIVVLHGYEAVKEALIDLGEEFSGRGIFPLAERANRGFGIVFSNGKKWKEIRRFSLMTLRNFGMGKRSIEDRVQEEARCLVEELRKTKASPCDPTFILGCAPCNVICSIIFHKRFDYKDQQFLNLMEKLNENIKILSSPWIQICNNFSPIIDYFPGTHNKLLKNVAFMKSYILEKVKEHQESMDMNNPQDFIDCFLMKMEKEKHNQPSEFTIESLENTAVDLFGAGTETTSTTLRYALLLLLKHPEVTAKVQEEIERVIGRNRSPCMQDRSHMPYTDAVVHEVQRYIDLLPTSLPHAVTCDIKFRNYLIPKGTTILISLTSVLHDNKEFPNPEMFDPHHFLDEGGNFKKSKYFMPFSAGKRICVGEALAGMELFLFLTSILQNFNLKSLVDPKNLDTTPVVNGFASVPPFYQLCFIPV
Sequence of Cytochrome P450 3A4 (P08684 whole entry): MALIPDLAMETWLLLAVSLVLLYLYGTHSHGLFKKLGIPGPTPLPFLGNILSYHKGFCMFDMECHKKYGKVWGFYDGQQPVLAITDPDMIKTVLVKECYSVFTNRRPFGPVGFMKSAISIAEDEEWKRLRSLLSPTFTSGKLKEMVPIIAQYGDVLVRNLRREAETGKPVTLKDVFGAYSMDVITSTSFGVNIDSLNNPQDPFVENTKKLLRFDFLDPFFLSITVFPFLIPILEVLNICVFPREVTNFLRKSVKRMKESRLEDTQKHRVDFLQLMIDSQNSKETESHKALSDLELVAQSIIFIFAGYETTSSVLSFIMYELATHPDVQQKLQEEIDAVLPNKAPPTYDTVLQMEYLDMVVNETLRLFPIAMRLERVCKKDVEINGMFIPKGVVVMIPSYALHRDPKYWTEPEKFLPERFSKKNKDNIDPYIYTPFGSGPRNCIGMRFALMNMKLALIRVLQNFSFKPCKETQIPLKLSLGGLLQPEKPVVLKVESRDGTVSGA
Sequence of Cytochrome P450 2C19 (P33261 whole entry): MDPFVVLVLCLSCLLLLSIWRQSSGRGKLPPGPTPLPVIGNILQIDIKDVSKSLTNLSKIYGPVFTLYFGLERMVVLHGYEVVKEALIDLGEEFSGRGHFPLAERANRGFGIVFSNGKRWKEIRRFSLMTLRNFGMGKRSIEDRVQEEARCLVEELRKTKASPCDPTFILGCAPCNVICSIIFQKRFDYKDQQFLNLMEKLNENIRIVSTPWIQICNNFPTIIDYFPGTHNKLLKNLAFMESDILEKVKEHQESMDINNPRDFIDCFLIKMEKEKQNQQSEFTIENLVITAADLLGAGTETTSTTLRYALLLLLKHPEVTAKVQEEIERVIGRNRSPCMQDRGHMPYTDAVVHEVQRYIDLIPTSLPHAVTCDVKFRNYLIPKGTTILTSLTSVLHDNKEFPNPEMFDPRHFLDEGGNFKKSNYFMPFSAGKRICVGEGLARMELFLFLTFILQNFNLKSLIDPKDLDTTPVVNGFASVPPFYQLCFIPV

SMILES: CCN1C/C(=C\c2cccc([N+](=O)[O-])c2)C(=O)/C(=C/c2cccc([N+](=O)[O-])c2)C1
- AC50 [1]: 8.11 µM (active)
- EC50 [2]: 0.187 µM (active)
- EC50 [3]: 0.117 µM (active)

SMILES: O=S(=O)(Nc1ccc2c(c1)OCCO2)c1ccc2oc3ccccc3c2c1
- IC50 (Fatty acid synthase [4]): 7.42 µM (active)
- IC50 (Fatty acid synthase [5]): 8 µM (active)

SMILES: CC(NC(=O)c1ccc([N+](=O)[O-])cc1Cl)C1CC2CCC1C2 (centres undefined)
- IC50 (Fatty acid synthase [4]): 11.1 µM (active)
- IC50 (Fatty acid synthase [5]): 9.39 µM (active)

SMILES: O=C(Nc1ccccc1)c1cccc(N2CCCC2=O)c1
- EC50 [6]: 45.5 µM (active)
- EC50 [7]: > 112 µM (not active)

SMILES: Cc1nc2ccccc2[nH]c(=O)c1=NNc1ccccc1
- EC50 (H4): 19 µM (active)
- EC50 [8]: 24.1 µM (active)
- EC50 [9]: > 120 µM (not active)

SMILES: Cc1ccc(OCCC(=O)OCc2csc(CC(=O)Nc3ccccc3C)n2)cc1
- EC50 [6]: > 112 µM (not active)
- EC50 [7]: > 112 µM (not active)

SMILES: O=C(Cn1cc([N+](=O)[O-])cn1)N1CCc2ccccc2C1
- IC50 (Fatty acid synthase [4]): 7.62 µM (active)
- IC50 (Fatty acid synthase [5]): 11.1 µM (active)

SMILES: COc1cccc(C(=O)Nc2ccccc2N2CCCC2)c1
- AC50 [10]: 1.54 µM (active)

SMILES: CCN(CC)c1ccc(NC(=O)C2CCCN(S(=O)(=O)c3cccnc3)C2)c(C)c1 (centres undefined)
- AC50 [10]: 2.3 µM (active)

SMILES: COC(=O)c1ccc(CSc2nc3cc(C)ccc3[nH]2)o1
- AC50 [10]: 2.71 µM (active)

SMILES: Cc1ccc(C(=O)NC(=S)Nc2cc(-c3nc4ccccc4s3)ccc2C)cc1
- AC50 (Cytochrome P450 2C9): 1.78 µM (inconclusive)
- AC50 (Cytochrome P450 3A4): 10 µM (inconclusive)
- EC50 [2]: 22 µM (active)
- EC50 [3]: 26.9 µM (active)

SMILES: CN1CCN(C(=O)c2ccc(COc3ccc(C(C)(C)C)cc3)o2)CC1
- AC50 (Cytochrome P450 2C9): 31.6 µM (inconclusive)
- EC50 (H4): 35.2 µM (active)
- AC50 (Cytochrome P450 1A2): 12.6 µM (inconclusive)
- EC50 [8]: 4.82 µM (active)
- EC50 [9]: 0.148 µM (inconclusive)
- AC50 (Cytochrome P450 2C19): 25.1 µM (inconclusive)

SMILES: c1ccc(CSc2nnc(Cc3ccccc3)o2)cc1
- EC50 (H4): > 120 µM (not active)
- EC50 [8]: 14.4 µM (active)
- EC50 [9]: 16.8 µM (active)

SMILES: N=c1n(CCO)c2ccccc2n1CCOc1ccc(Cl)cc1Cl
- EC50 [2]: 8.45 µM (active)
- EC50 [3]: 8.23 µM (active)

SMILES: O=C(NCc1ccc(C(F)(F)F)cc1)C1CC(c2c(Cl)cccc2Cl)=NO1 (centres undefined)
- IC50 (Fatty acid synthase [4]): 9.63 µM (active)
- IC50 (Fatty acid synthase [5]): 10.3 µM (active)

SMILES: COc1ccc2c(c1)NP(=S)(Oc1ccccc1)N2 (centres undefined)
- AC50 [10]: 2.02 µM (active)

SMILES: CC1CC(Nc2ccccc2)c2ccccc2N1C(=O)c1ccco1 (centres undefined)
- AC50 [10]: 21.1 µM (active)

SMILES: Cc1cc(/C=C2\SC(N)=NC2=O)c(C)n1-c1ccccc1
- EC50 (H4): > 120 µM (not active)
- EC50 [8]: 0.167 µM (active)
- EC50 [9]: 0.143 µM (active)

SMILES: COc1ccc(N2CCN(C(CNS(C)(=O)=O)c3ccco3)CC2)cc1 (centres undefined)
- AC50 [10]: 4.67 µM (active)

SMILES: O=C1C2CCN(CC2)C1Cc1ccc(OCCOc2ccccc2)cc1 (centres undefined)
- EC50 (BJ [11]): > 150 µM (not active)
- EC50 [12]: 30.6 µM (active)
- EC50 [13]: > 150 µM (not active)
- EC50 (BJ [14]): > 150 µM (not active)
- EC50 (BJ [15]): > 150 µM (not active)

SMILES: O=C(OCC(=O)N1CCN(C(=O)c2ccco2)CC1)c1cc(-c2ccccc2)nc2ccccc12
- AC50 [1]: 4.24 µM (active)

SMILES: COc1cccc(C(c2sc3ncnn3c2O)N2CCN(C(=O)c3ccco3)CC2)c1 (centres undefined)
- EC50 [6]: > 112 µM (not active)
- EC50 [7]: > 112 µM (not active)

SMILES: CN(C)c1oc(-c2ccco2)nc1C#N
- EC50 [6]: > 112 µM (not active)
- EC50 [7]: > 112 µM (not active)

SMILES: CCN(CC)c1ccc(NC(=O)c2nc3nc(C)cc(C(F)F)n3n2)cc1
- AC50 [10]: 1.51 µM (active)

SMILES: Cn1cc(S(=O)(=O)N2CCOCC2)cc1C(=O)Nc1cccc(Cl)c1
- EC50 [6]: > 112 µM (not active)
- EC50 [7]: > 112 µM (not active)

SMILES: COc1cccc(NC(=O)c2ccc3c(c2)OCCO3)c1
- EC50 (BJ [11]): > 150 µM (inconclusive)
- EC50 [6]: 3.52 µM (active)
- EC50 [7]: 4.7 µM (active)
- EC50 [13]: 15.7 µM (active)
- EC50 (BJ [14]): 18.2 µM (active)
- EC50 (BJ [15]): 20.9 µM (active)

SMILES: O=S(=O)(c1ccc(-c2csc(-c3cccnc3)n2)cc1)N1CCOCC1
- IC50 (Fatty acid synthase [4]): 4.92 µM (active)

SMILES: CCOC(=O)c1ccc(Nc2nnc(C)c3ccccc23)cc1
- EC50 (H4): 16.9 µM (active)
- EC50 [8]: 14.4 µM (active)
- EC50 [9]: 18.6 µM (active)

SMILES: Brc1ccc2nc(-c3cccs3)c(NCC3CCCO3)n2c1 (centres undefined)
- EC50 (H4): 17.5 µM (active)
- EC50 [8]: 18.9 µM (active)
- EC50 [9]: 9.6 µM (active)

SMILES: COc1ccc(Oc2ccc(/C=C/C(=O)c3ccc(O)cc3)cc2[N+](=O)[O-])cc1
- EC50 [2]: 2.14 µM (active)
- EC50 [3]: 2.53 µM (active)

SMILES: O=C(NCC(c1cccnc1)N1CCN(c2ccccc2)CC1)c1ccco1 (centres undefined)
- EC50 [16]: 0.998 µM (active)
- AC50 [10]: 3.08 µM (active)
- EC50 [17]: > 60 µM (not active)

SMILES: COc1ccc([N+](=O)[O-])cc1NC(=O)COC(=O)/C=C/c1ccco1
- IC50 (Fatty acid synthase [4]): 8.49 µM (active)
- IC50 (Fatty acid synthase [5]): 5.11 µM (active)

SMILES: O=C(COC(=O)c1cc([N+](=O)[O-])ccc1N1CCOCC1)Nc1ccccc1OC(F)F
- IC50 (Fatty acid synthase [4]): 5.1 µM (active)
- IC50 (Fatty acid synthase [5]): 4.73 µM (active)

SMILES: Fc1cc(Br)ccc1N=C(S)NCCc1ccccc1
- EC50 (H4): 27.5 µM (active)
- EC50 [8]: 15.9 µM (active)
- EC50 [9]: 21.3 µM (active)

SMILES: Nc1ccc(CCc2ccc(N)cc2)cc1
- AC50 [10]: 1.91 µM (active)

SMILES: O=C(Nc1ccc(C(F)(F)F)cc1)c1cccc(-n2cnnn2)c1
- IC50 (Fatty acid synthase [4]): 5.97 µM (active)
- IC50 (Fatty acid synthase [5]): 11.1 µM (active)

SMILES: O=C(O)c1cc(O)ccc1NC(=O)c1cccc2ccccc12
- AC50 [10]: 3.41 µM (active)

SMILES: O=C(NCCC(=O)N(CCc1ccccc1)Cc1ccccc1)c1ccc([N+](=O)[O-])cc1
- IC50 (Fatty acid synthase [4]): 8.92 µM (active)
- IC50 (Fatty acid synthase [5]): 8.21 µM (active)

SMILES: Cc1nn(-c2ccc([N+](=O)[O-])cc2)c(O)c1/C=N/CCN1CCN(C(=O)c2ccccc2F)CC1
- AC50 [1]: 5.72 µM (active)

SMILES: OCCSc1nncn1/N=C/c1c[nH]c2ccccc12
- EC50 [6]: > 112 µM (not active)
- EC50 [7]: > 112 µM (not active)

SMILES: O=C1N=C(c2ccccc2)N(c2ccccc2)C(=O)/C1=C(/O)c1ccccc1
- EC50 (H4): > 120 µM (not active)
- EC50 [8]: 19.2 µM (active)
- EC50 [9]: > 120 µM (not active)

SMILES: OC(CCCN1CCC(O)(c2ccc(Cl)cc2)CC1)c1ccc(F)cc1 (centres undefined) [HYDROXYHALOPERIDOL]
- EC50 [2]: 28.4 µM (active)
- EC50 [3]: 29.3 µM (active)
